30 compounds from patent US5972953A, “Brain cell protective agent” (priority 1993, dated 1999) can be followed below.

The test system of the test is cultured nerve cells (cerebral cortex). Description: cells. Type of test: cell-based, Wistar rat. Conditions: Rattus norvegicus, Cerebral cortex neuron.
The mark [1] stands for this setting: 10 mM glutamate, 24 hours at 37° C., LDH leakage, read-out: ED50 (the source's name).

pEC50: −log10 of the molar value. Like-named read-outs stand apart in the source and are kept apart here.

Turning to `CC(C)N(Cc1ccccc1)[C@@H]1CC[C@@]2(O)[C@H]3Cc4ccc(O)c5c4[C@@]2(CCN3CC2CC2)[C@H]1O5` [Compound 6, 17-cyclopropylmethyl-3,14β-dihydroxy-4,5α-epoxy-6β-(N-isopropylbenzylamino)morphinan], the pEC50 under setting [1] was 5.71.
As to `CC(C)N(C(=O)/C=C/c1cccc(C(F)(F)F)c1)[C@@H]1CC[C@@]2(O)[C@H]3Cc4ccc(O)c5c4[C@@]2(CCN3CC2CC2)[C@H]1O5` [Compound 64, 17-cyclopropylmethyl-3,14β-dihydroxy-4,5α-epoxy-6β-(N-isopropyl-3-trifluoromethylcinnamamido)morphinan], the pEC50 under setting [1] is 6.16.
Take `CC(=O)Oc1ccc2c3c1O[C@H]1[C@H](N(C)C(=O)/C=C/c4ccccc4)CC[C@@]4(O)[C@@H](C2)N(CC2CC2)CC[C@]314` [Compound 114, 17-cyclopropylmethyl-3-acetoxy-14β-hydroxy-4,5α-epoxy-6β-(N-methylcinnamamido)morphinan]: where the note is “24 h, read-out: ED50”, the pEC50 was 4.22.
Take `Oc1ccc2c3c1O[C@H]1[C@H](N(Cc4ccccc4)CC(c4ccccc4)c4ccccc4)CC[C@@]4(O)[C@@H](C2)N(CC2CC2)CC[C@]314` [Compound 14, 17-cyclopropylmethyl-3,14β-dihydroxy-4,5α-epoxy-6β-[N-(2,2-diphenylethyl)benzylamino)morphinan]: the pEC50 under setting [1] was 6.96.
As to `CCCCCN(Cc1ccccc1)[C@@H]1CC[C@@]2(O)[C@H]3Cc4ccc(O)c5c4[C@@]2(CCN3CC2CC2)[C@H]1O5` [Compound 9, 17-cyclopropylmethyl-3,14β-dihydroxy-4,5α-epoxy-6β-(N-pentylbenzylamino)morphinan], the pEC50 under setting [1] is 6.54.
As for `O=C(/C=C/c1cccc(C(F)(F)F)c1)N(CCc1ccccc1)[C@@H]1CC[C@@]2(O)[C@H]3Cc4ccc(O)c5c4[C@@]2(CCN3CC2CC2)[C@H]1O5` [Compound 67, 17-cyclopropylmethyl-3,14β-dihydroxy-4,5α-epoxy-6β-[N-(2-phenethyl)-3-trifluoromethylcinnamamido]morphinan], under setting [1], the pEC50 was 7.00.
For the compound `CN(C(=O)C1c2ccccc2-c2ccccc21)[C@@H]1CC[C@@]2(O)[C@H]3Cc4ccc(O)c5c4[C@@]2(CCN3CC2CC2)[C@H]1O5` [Compound 88, 17-cyclopropylmethyl-3,14β-dihydroxy-4,5α-epoxy-6β-(N-methyl-9-fluorenylamido) morphinan], the pEC50 under setting [1] was 5.33.
In the case of `CN(C(=O)/C=C/c1ccc(C(F)(F)F)cc1)[C@@H]1CC[C@@]2(O)[C@H]3Cc4ccc(O)c5c4[C@@]2(CCN3CC2CC2)[C@H]1O5` [Compound 56, 17-cyclopropylmethyl-3,14β-dihydroxy-4,5α-epoxy-6β-(N-methyl-4-trifluoromethylcinnamamido)morphinan], the pEC50 under setting [1] was 5.97.
`CN(C(=O)/C=C/c1cccc(F)c1)[C@@H]1CC[C@@]2(O)[C@H]3Cc4ccc(O)c5c4[C@@]2(CCN3CC2CC2)[C@H]1O5` [Compound 79, 17-cyclopropylmethyl-3,14β-dihydroxy-4,5α-epoxy-6β-(N-methyl-3-fluorocinnamamido)morphinan]: the pEC50 (24 h, read-out: ED50) is 4.91.
In the case of `O=C(CCCCCc1ccccc1)N(CC(c1ccccc1)c1ccccc1)[C@@H]1CC[C@@]2(O)[C@H]3Cc4ccc(O)c5c4[C@@]2(CCN3CC2CC2)[C@H]1O5` [Compound 74, 17-cyclopropylmethyl-3,14β-dihydroxy-4,5α-epoxy-6β-[N-(2,2-diphenylethyl)-6-phenylhexanoamido)morphinan], under setting [1], the pEC50 is 6.66.
Regarding `Oc1ccc2c3c1O[C@H]1[C@H](N(CCc4ccccc4)Cc4ccccc4)CC[C@@]4(O)[C@@H](C2)N(CC2CC2)CC[C@]314` [Compound 10, 17-cyclopropylmethyl-3,14β-dihydroxy-4,5α-epoxy-6β-(N-2-phenethylbenzylamino)morphinan], under setting [1], the pEC50 was 6.55.
Regarding `CN(Cc1ccccc1)[C@H]1CC[C@@]2(O)[C@H]3Cc4ccc(O)c5c4[C@@]2(CCN3CC2CC2)[C@H]1O5` [Compound 95, 17-cyclopropylmethyl-3,14β-dihydroxy-4,5α-epoxy-6α-(N-methylbenzylamino)morphinan], the pEC50 under setting [1] was 6.25.
`Oc1ccc2c3c1O[C@H]1[C@H](N(CCCc4ccccc4)Cc4ccccc4)CC[C@@]4(O)[C@@H](C2)N(CC2CC2)CC[C@]314` [Compound 12, 17-cyclopropylmethyl-3,14β-dihydroxy-4,5α-epoxy-6β-(N-3-phenylpropylbenzylamino) morphinan]: under setting [1], the pEC50 was 6.89.
Turning to `CC(C)CN(CCCCCCc1ccccc1)[C@H]1CC[C@@]2(O)[C@H]3Cc4ccc(O)c5c4[C@@]2(CCN3CC2CC2)[C@H]1O5` [Compound 97, 17-cyclopropylmethyl-3,14β-dihydroxy-4,5α-epoxy-6α-(N-isobutyl-6-phenylhexylamino)morphinan], the pEC50 under setting [1] was 6.80.
On the same count and under the same terms, the figure for `C=CCN1CC[C@]23c4c5ccc(O)c4O[C@H]2[C@H](N(C)C(=O)Cc2ccc(Cl)c(Cl)c2)CC[C@@]3(O)[C@H]1C5` [Compound 93, 17-allyl-3,14β-dihydroxy-4,5α-epoxy-6β-(N-methyl-3,4-dichlorophenylacetoamido)morphinan] is 5.82; for `CCN(Cc1ccccc1)[C@@H]1CC[C@@]2(O)[C@H]3Cc4ccc(O)c5c4[C@@]2(CCN3CC2CC2)[C@H]1O5` [Compound 5, 17-cyclopropylmethyl-3,14β-dihydroxy-4,5α-epoxy-6β-(N-ethylbenzylamino)morphinan] it is 4.61.
In the case of `CN(C(=O)c1ccc2ccccc2c1)[C@@H]1CC[C@@]2(O)[C@H]3Cc4ccc(O)c5c4[C@@]2(CCN3CC2CC2)[C@H]1O5` [Compound 52, 17-cyclopropylmethyl-3,14β-dihydroxy-4,5α-epoxy-6β-(N-methyl-2-naphthamido)morphinan], the pEC50 under setting [1] was 5.83.
For `CC(C)CN(Cc1ccccc1)[C@@H]1CC[C@@]2(O)[C@H]3Cc4ccc(O)c5c4[C@@]2(CCN3CC2CC2)[C@H]1O5` [Compound 7, 17-cyclopropylmethyl-3,14β-dihydroxy-4,5α-epoxy-6β-(N-isobutylbenzylamino)morphinan], the pEC50 under setting [1] is 6.49.
As for `CC(=O)O[C@@]12CC[C@@H](N(C)C(=O)/C=C/c3ccccc3)[C@@H]3Oc4c(O)ccc5c4[C@@]31CCN(CC1CC1)[C@@H]2C5` [Compound 115, 17-cyclopropylmethyl-3-hydroxy-14β-acetoxy-4,5α-epoxy-6β-(N-methylcinnamamido)morphinan], under setting [1], the pEC50 was 5.27.
On to `O=C(Cc1ccc(Cl)c(Cl)c1)N[C@H]1CC[C@@]2(O)[C@H]3Cc4ccc(O)c5c4[C@@]2(CCN3CC2CC2)[C@H]1O5` [Compound 36, 17-cyclopropylmethyl-3,14β-dihydroxy-4,5α-epoxy-6α-(3,4-dichlorophenylacetoamido) morphinan], for which the pEC50 under setting [1] was 6.00.
Consider `Cc1cccc(/C=C/C(=O)N(CC(C)C)[C@@H]2CC[C@@]3(O)[C@H]4Cc5ccc(O)c6c5[C@@]3(CCN4CC3CC3)[C@H]2O6)c1` [Compound 57, 17-cyclopropylmethyl-3,14β-dihydroxy-4,5α-epoxy-6β-(N-isobutyl-3-methylcinnamamido)morphinan], for which the pEC50 (24 h, read-out: ED50) is 6.18.
Consider `O=C(/C=C/c1cccc(C(F)(F)F)c1)N(CCCc1ccccc1)[C@@H]1CC[C@@]2(O)[C@H]3Cc4ccc(O)c5c4[C@@]2(CCN3CC2CC2)[C@H]1O5` [Compound 69, 17-cyclopropylmethyl-3,14β-dihydroxy-4,5α-epoxy-6β-[N-(3-phenylpropyl)-3-trifluoromethylcinnamamido]-morphinan], for which, under setting [1], the pEC50 was 6.80.
Consider `O=C(CCCCCc1ccccc1)N(CCCCc1ccccc1)[C@@H]1CC[C@@]2(O)[C@H]3Cc4ccc(O)c5c4[C@@]2(CCN3CC2CC2)[C@H]1O5` [Compound 73, 17-cyclopropylmethyl-3,14β-dihydroxy-4,5α-epoxy-6β-[N-(4-phenylbutyl)-6-phenylhexanoamido)morphinan], for which the pEC50 under setting [1] was 6.85.
Take `CC(C)CN(C(=O)CCCCCCCCCCc1ccccc1)[C@@H]1CC[C@@]2(O)[C@H]3Cc4ccc(O)c5c4[C@@]2(CCN3CC2CC2)[C@H]1O5` [Compound 60, 17-cyclopropylmethyl-3,14β-dihydroxy-4,5α-epoxy-6β-(N-isobutyl-11-phenylundecanoamido)morphinan]: under setting [1], the pEC50 was 7.05.
For the compound `CC(C)CN(C(=O)CCCCC(=O)c1ccccc1)[C@@H]1CC[C@@]2(O)[C@H]3Cc4ccc(O)c5c4[C@@]2(CCN3CC2CC2)[C@H]1O5` [Compound 61, 17-cyclopropylmethyl-3,14β-dihydroxy-4,5α-epoxy-6β-(N-isobutyl-5-benzoylpentanoamido)morphinan], the pEC50 under setting [1] was 5.65.
`CC(C)CN(C(=O)/C=C/c1cccc(C(F)(F)F)c1)[C@@H]1CC[C@@]2(O)[C@H]3Cc4ccc(O)c5c4[C@@]2(CCN3CC2CC2)[C@H]1O5` [Compound 65, 17-cyclopropylmethyl-3,14β-dihydroxy-4,5α-epoxy-6β-(N-isobutyl-3-trifluoromethylcinnamamido)morphinan]: the pEC50 (24 h, read-out: ED50) was 6.51.
Take `CN(C(=O)OCc1ccccc1)[C@H]1CC[C@@]2(O)[C@H]3Cc4ccc(O)c5c4[C@@]2(CCN3CC2CC2)[C@H]1O5` [Compound 99, 17-cyclopropylmethyl-3,14β-dihydroxy-4,5α-epoxy-6α-(N-methylbenzyloxycarbamido)morphinan]: the pEC50 under setting [1] is 6.40.
As for `O=C(/C=C/c1cccc(C(F)(F)F)c1)N(CC1CCCCC1)[C@@H]1CC[C@@]2(O)[C@H]3Cc4ccc(O)c5c4[C@@]2(CCN3CC2CC2)[C@H]1O5` [Compound 68, 17-cyclopropylmethyl-3,14β-dihydroxy-4,5α-epoxy-6β-(N-cyclohexylmethyl-3-trifluoromethylcinnamamido)morphinan], the pEC50 (24 h, read-out: ED50) is 7.00.
As to `CN(C(=O)/C=C/c1ccccc1C(F)(F)F)[C@@H]1CC[C@@]2(O)[C@H]3Cc4ccc(O)c5c4[C@@]2(CCN3CC2CC2)[C@H]1O5` [Compound 55, 17-cyclopropylmethyl-3,14β-dihydroxy-4,5α-epoxy-6β-(N-methyl-2-trifluoromethylcinnamamido)morphinan], the pEC50 under setting [1] was 5.76.
Turning to `CC(C)CN(C(=O)CCCCCc1ccccc1)[C@H]1CC[C@@]2(O)[C@H]3Cc4ccc(O)c5c4[C@@]2(CCN3CC2CC2)[C@H]1O5` [Compound 37, 17-cyclopropylmethyl-3,14β-dihydroxy-4,5α-epoxy-6α-(N-isobutyl-6-phenylhexanoamido)morphinan], under setting [1], the pEC50 was 7.22.
